# Values of other authors in patent publication US20150320814A1, “NUTRACEUTICAL FORMULATION FOR TREATMENT OF ANXIETY AND DEPRESSION” (priority 2014, published 2015).
# Columns and labels:
# [1] = tested on: GABA receptors; conditions: isolated from skullcap
# [2] = tested on: patients with clinical depression; conditions: patients with clinical depression treated with nicotinic acid
# [3] = tested on: patients with major depression; conditions: 125-300 mg of magnesium with each meal and at bedtime
# [4] = in vivo
# [5] = tested on: alpha brain waves; conditions: sixty minutes after oral administration, volunteers
compound,measurement,setting,value
O=C(O)[C@H]1O[C@@H](Oc2cc3oc(-c4ccccc4)cc(=O)c3c(O)c2O)[C@H](O)[C@@H](O)[C@@H]1O [baicalin],activity at GABA receptors,[1],agonists of GABA receptors
O=C(O)c1cccnc1 [nicotinic acid],patients showing significant improvements in mood,[2],14 of 15
[Mg+2] [magnesium],recovery from major depression,[3],Rapid recovery
O=c1cc(-c2ccccc2)oc2cc(O)c(O)c(O)c12 [baicalein],activity at GABA receptors,[1],agonists of GABA receptors
"CCNC(=O)CC[C@H](N)C(=O)O [Theanine, L-theanine]",blood brain barrier passage,[4],passes through the blood brain barrier
"NCCCC(=O)O [GABA, gamma aminobutyric acid]",alpha brain waves by electroencephalogram,[5],increases in alpha brain waves
